Among the data in publication PMC12304826, “Redirecting the Peptide Cleavage Causes Protease Inactivation” (Angewandte Chemie (International Ed. in English), 2025) are remaining activity values, retold here.

This experiment deals with T1, human cathepsin K (Homo sapiens, UniProt P43235).
T1 construct: purchased Enzo Life Sciences, Lörrach, Germany
T1 sequence (P43235 115-329): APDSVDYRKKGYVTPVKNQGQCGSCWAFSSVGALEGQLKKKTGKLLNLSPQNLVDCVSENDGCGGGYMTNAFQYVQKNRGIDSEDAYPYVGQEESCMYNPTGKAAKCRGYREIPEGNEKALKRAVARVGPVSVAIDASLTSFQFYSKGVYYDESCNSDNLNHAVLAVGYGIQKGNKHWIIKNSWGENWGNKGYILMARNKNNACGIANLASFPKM
Briefly: Cathepsin K inhibition assay (Cbz-Leu-Arg-AMC). The experiment is classed as biochemical. To be noted: 20 µM inhibitor, 60 min; read-out: Residual activity @ 20 µM (%) Cat K. The method, then: 1. Enzyme Inhibition Assays and Kinetic Data of Inhibition of Cathepsins B, L, K and S General. Human cathepsins were assayed either fluorimetrically or spectrophotometrically as noted below. The 10 mM inhibitor solutions were prepared in DMSO. The final concentration of DMSO in all assays was 2%. Non-linear regressions were conducted with GraFit 5. Residual cathepsin activity at an inhibitor concentration of 20 µM was determined from duplicate measurements based on the product formation after 60 min. Concentration dependent measurements were performed in duplicate measurements with five different inhibitor concentrations when the residual cathepsin activity in the presence of 20 µM inhibitor was below 70% (cathepsin B) or below 50% (cathepsins cathepsins L, K, and S). Progress curves were monitored for 60 min. First-order rate constants, kobs, were determined by non-linear regression following the equation [P] = vi × (1 – exp(-kobs × t))/kobs + d, where [P] is the product concentration, vi is the initial product formation rate, kobs is the observed first-order rate constant, and d is the offset. Mean values of kobs were plotted versus corresponding inhibitor concentrations [I], and second-order rate constants of inactivation, kinac/Ki, were obtained by linear regression. The equation kobs/[I] = (kinac/Ki)/(1 + [S]/Km) was used, where [S] is the substrate concentration and Km is the Michaelis-Menten constant. Standard errors (SE) refer to the linear regression. […] Cathepsin K inhibition assay.[1] Human recombinant cathepsin K (Enzo Life Sciences, Lörrach, Germany) was assayed fluorimetrically on a Monaco Safas spectrofluorometer flx or a Fluostar OPTIMA plate reader (BMG Labtech, Ortenberg, Germany). The wavelength for excitation was 360 nm and for emission 440 nm. The reactions were followed at 25 °C. A human cathepsin K stock solution of 23 µg/mL in 50 mM sodium acetate pH 5.5, 50 mM NaCl, 0.5 mM EDTA, 5 mM DTT was diluted 1:100 with assay buffer (100 mM sodium citrate pH 5.0, 100 mM NaCl, 1 mM EDTA, 0.01% CHAPS) containing 5 mM DTT and incubated for 30 min at 37 °C. A 10 mM stock solution of the 7-amino-4-methyl-coumarin (AMC)-based fluorogenic substrate Cbz-Leu-Arg-AMC was prepared in DMSO. The final concentration of the substrate was 40 μM (= 13.3 Km). When using the spectrofluorometer, into a cuvette containing 960 μL assay buffer, inhibitor solution and DMSO in a total volume of 16 μL, and 4 μL of the substrate solution were added and mixed. The reaction was initiated by adding 20 µL of the cathepsin K solution. When using the plate reader, into a well containing 192 µL assay buffer, inhibitor solution and DMSO in a total volume of 3.2 µL and 0.8 µL of the substrate solution were added and mixed. The reaction was initiated by adding 4 µL of the cathepsin K solution.
Cathepsin S inhibition assay.[2] […]
DTT, 0.5% Triton X-100 and 30% glycerol was diluted 1:100 with a 50 mM sodium phosphate buffer pH 6.5, 50 mM NaCl, 2 mM EDTA, 0.01% Triton X-100 and 5 mM DTT and incubated for 60 min at 37 °C. A 10 mM stock solution of the fluorogenic substrate Cbz-Phe-Arg-AMC was prepared in DMSO.
The assay was performed with a final substrate concentration of 40 µM (= 0.74 Km). When using the spectrofluorometer, into a cuvette containing 920 μL assay buffer, inhibitor solution and DMSO in a total volume of 16 μL, and 4 μL of the substrate solution were added and mixed. The reaction was initiated by adding 60 μL of the cathepsin S solution. When using the plate reader, into a well containing 188 µL assay buffer, inhibitor solution and DMSO in a total volume of 3.2 µL and 0.8 µL of the substrate solution were added and mixed. The reaction was initiated by adding […] of the cathepsin S solution.

With `CC(C)CC(C(=O)NC(Cc1ccccc1)C(=O)O)N(C)C(=O)Oc1ccc(Cl)cc1` (stereo not shown) [Compound 14], the remaining activity at 20 µM turned out to be 76%.
